According to ChEMBL document CHEMBL1201862, “PubChem BioAssay data set” (2004):
Values belong to the molecule of their own block, whether it stands above or below them. Calls of active or inactive are those of the source.

Columns and labels:
[1] = target: NACHT, LRR and PYD domains-containing protein 3 (Homo sapiens, UniProt Q96P20); assay: NALP3 inhibitors in yeast, dose response, luminescent (AID 488799); assay type: functional
[2] = target: Mu-type opioid receptor (Homo sapiens, UniProt P35372); assay: SAR Analysis of Antagonists of the MOR Receptor using an Image-Based Assay - Set 3. [Related pubchem assays (depositor defined):AID1777, AID1785, AID1786, AID1966, AID2133, AID2136, AID2284, AID2285, AID2420]; assay type: functional
Chain of Mu-type opioid receptor (P35372 whole entry): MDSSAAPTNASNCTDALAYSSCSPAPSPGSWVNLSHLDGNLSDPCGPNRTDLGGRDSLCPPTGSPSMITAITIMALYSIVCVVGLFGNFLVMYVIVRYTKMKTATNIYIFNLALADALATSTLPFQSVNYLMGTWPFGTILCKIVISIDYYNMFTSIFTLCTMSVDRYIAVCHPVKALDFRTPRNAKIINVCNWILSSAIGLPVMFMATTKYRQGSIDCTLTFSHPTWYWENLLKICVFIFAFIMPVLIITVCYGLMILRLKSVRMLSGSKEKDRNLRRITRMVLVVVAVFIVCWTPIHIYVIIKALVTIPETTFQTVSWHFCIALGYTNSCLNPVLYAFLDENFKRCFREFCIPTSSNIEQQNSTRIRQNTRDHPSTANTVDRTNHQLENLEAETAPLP

[3] = target: T1, Kappa-type opioid receptor (Homo sapiens, UniProt P41145); assay: SAR analysis of small molecule antagonists of the kappa opioid receptor via a luminescent beta-arrestin assay - Set 4. [Related pubchem assays (depositor defined):AID1777, AID1778, AID1785, AID1786, AID1966, AID2133, AID2136, AID2285]; assay type: functional
T1 sequence (P41145 whole entry): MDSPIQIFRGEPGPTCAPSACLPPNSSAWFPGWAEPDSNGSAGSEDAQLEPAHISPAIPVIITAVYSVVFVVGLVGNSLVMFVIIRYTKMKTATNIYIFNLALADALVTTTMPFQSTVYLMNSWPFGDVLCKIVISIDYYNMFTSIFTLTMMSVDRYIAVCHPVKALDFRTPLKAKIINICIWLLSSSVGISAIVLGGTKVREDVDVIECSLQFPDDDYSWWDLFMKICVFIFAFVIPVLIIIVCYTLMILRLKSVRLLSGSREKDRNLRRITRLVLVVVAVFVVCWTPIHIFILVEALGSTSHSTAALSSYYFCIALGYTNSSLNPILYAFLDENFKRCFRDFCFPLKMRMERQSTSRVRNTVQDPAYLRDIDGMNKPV

[4] = target: T1, Kappa-type opioid receptor; assay: SAR analysis of Antagonists of the Kappa Opioid Receptor (KOR) using an Image-Based Assay - Set 4. [Related pubchem assays (depositor defined):AID1777, AID1785]; assay type: functional
[5] = target: Delta-type opioid receptor (Homo sapiens, UniProt P41143); assay: SAR Analysis of Antagonists of the DOR Receptor using an Image-Based Assay - Set 3. [Related pubchem assays (depositor defined):AID1777, AID1785]; assay type: functional;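 further: U2OS cells expressing DOR1 and beta-arrestin GFP stimulated with 100 nM SNC80; imaging of GFP-tagged beta-arrestin moving into spots after receptor activation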
Chain of Delta-type opioid receptor (P41143 whole entry): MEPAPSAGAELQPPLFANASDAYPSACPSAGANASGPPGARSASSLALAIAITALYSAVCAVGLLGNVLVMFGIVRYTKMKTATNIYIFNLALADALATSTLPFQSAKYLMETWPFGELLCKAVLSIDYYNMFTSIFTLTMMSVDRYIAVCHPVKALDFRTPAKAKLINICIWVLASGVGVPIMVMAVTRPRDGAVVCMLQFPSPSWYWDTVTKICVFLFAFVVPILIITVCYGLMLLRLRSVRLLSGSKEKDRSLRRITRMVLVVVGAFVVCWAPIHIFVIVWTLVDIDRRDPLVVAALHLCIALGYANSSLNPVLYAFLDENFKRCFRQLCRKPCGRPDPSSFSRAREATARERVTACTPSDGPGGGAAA

[6] = target: G2/mitotic-specific cyclin-B1 (Homo sapiens, UniProt P14635); assay: G2/M cell cycle arrest in HeLa, late-stage follow-up, mechanism study for Wee1 degradation inhibitor project, FACS, panel member Cyclin B Degradation (AID 2088)
Chain of G2/mitotic-specific cyclin-B1 (P14635 whole entry): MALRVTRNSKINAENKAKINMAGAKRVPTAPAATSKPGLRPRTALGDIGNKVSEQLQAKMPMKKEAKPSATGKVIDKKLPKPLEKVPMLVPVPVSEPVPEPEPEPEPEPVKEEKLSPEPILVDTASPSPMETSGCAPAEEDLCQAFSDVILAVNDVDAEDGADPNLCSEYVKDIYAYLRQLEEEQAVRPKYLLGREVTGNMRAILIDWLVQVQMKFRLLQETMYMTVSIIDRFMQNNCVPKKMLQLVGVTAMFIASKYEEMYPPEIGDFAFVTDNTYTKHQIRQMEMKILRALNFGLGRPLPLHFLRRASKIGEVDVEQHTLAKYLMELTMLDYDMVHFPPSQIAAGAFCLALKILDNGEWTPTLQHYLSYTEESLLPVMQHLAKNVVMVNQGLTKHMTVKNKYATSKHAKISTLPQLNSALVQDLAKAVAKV

[7] = target: Wee1-like protein kinase (Homo sapiens, UniProt P30291); assay: G2/M cell cycle arrest in HeLa, late-stage follow-up, mechanism study for Wee1 degradation inhibitor project, FACS, panel member Wee1 Degradation (AID 2088)
Chain of Wee1-like protein kinase (P30291 whole entry): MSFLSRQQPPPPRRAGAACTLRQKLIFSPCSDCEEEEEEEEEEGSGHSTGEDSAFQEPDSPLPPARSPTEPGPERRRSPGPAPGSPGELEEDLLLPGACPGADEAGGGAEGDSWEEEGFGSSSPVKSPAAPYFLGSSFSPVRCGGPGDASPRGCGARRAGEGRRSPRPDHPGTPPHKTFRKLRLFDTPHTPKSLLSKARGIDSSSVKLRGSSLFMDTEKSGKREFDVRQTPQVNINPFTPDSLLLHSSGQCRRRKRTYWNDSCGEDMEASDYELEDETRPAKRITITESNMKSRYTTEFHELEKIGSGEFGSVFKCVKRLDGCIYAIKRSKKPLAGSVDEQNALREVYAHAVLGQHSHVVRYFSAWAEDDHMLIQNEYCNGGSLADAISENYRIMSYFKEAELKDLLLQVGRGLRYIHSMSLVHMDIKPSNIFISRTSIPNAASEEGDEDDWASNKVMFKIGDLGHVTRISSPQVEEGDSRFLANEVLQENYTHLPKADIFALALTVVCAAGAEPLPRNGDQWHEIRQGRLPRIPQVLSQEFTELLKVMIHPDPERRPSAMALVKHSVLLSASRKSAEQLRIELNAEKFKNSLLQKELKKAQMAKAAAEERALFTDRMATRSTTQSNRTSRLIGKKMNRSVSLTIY

[8] = Luminescence Cell-Based Dose Confirmation HTS to Identify Inhibitors of Platelet Dense Granule Release. [Related pubchem assays: 1663 (Primary HTS), 1678 (Summary of Project)]; assay type: functional
[9] = target: Luciferin 4-monooxygenase (Photinus pyralis, UniProt P08659); assay: firefly luciferase enzyme inhibitors, dose response, biochemical, luminescence (AID 1891)
Chain of Luciferin 4-monooxygenase (P08659 whole entry): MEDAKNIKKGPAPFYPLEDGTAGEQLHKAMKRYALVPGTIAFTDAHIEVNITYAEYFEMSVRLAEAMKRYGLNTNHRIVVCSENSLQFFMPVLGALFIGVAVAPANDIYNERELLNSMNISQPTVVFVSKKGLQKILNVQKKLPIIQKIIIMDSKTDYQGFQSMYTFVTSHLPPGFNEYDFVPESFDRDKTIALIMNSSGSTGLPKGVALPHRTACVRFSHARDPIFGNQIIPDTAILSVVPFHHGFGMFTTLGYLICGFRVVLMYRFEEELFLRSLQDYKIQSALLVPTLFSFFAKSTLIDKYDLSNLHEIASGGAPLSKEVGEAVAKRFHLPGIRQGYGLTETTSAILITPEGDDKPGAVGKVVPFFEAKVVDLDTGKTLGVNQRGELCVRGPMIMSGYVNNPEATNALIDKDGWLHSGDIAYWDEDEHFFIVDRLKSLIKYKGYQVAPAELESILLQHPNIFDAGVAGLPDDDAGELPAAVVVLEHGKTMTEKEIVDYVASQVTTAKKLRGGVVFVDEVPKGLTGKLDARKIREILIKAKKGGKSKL

[10] = inhibition of ADP-Glo detection reagents, dose response, artefact control for CDK5 inhibitor project, biochemical, luminescence, cherry-picked samples, set 2 (AID 504546); assay type: functional
[11] = target: Cyclin-dependent kinase 5/CDK5 activator 1 (Homo sapiens, UniProt Q00535); assay: CDK5/p35 kinase inhibitors, dose response, biochemical, cherry-picked samples, set 2 (AID 504545)
Chain of Cyclin-dependent kinase 5/CDK5 activator 1 (Q00535 whole entry): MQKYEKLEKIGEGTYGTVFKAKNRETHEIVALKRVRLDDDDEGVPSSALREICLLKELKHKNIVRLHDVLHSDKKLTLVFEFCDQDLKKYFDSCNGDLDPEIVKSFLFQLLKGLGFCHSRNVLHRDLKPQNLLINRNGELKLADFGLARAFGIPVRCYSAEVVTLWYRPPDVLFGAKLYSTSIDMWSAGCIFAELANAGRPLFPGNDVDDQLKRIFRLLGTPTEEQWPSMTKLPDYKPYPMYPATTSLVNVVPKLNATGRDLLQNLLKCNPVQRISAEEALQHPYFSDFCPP
Chain of Cyclin-dependent kinase 5/CDK5 activator 1 (Q15078 whole entry, further chain): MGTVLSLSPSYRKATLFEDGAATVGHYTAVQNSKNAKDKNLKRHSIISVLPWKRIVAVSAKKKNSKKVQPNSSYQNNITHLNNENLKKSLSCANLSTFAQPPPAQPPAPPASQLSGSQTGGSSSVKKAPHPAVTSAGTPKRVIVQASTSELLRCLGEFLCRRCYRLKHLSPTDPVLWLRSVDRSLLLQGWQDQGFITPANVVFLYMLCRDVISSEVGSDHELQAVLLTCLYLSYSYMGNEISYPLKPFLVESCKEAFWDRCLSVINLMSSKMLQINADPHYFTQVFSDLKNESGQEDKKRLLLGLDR

[12] = target: T2, Histone-lysine N-methyltransferase NSD2 (Homo sapiens, UniProt O96028); assay type: biochemical
T2 sequence (O96028 whole entry): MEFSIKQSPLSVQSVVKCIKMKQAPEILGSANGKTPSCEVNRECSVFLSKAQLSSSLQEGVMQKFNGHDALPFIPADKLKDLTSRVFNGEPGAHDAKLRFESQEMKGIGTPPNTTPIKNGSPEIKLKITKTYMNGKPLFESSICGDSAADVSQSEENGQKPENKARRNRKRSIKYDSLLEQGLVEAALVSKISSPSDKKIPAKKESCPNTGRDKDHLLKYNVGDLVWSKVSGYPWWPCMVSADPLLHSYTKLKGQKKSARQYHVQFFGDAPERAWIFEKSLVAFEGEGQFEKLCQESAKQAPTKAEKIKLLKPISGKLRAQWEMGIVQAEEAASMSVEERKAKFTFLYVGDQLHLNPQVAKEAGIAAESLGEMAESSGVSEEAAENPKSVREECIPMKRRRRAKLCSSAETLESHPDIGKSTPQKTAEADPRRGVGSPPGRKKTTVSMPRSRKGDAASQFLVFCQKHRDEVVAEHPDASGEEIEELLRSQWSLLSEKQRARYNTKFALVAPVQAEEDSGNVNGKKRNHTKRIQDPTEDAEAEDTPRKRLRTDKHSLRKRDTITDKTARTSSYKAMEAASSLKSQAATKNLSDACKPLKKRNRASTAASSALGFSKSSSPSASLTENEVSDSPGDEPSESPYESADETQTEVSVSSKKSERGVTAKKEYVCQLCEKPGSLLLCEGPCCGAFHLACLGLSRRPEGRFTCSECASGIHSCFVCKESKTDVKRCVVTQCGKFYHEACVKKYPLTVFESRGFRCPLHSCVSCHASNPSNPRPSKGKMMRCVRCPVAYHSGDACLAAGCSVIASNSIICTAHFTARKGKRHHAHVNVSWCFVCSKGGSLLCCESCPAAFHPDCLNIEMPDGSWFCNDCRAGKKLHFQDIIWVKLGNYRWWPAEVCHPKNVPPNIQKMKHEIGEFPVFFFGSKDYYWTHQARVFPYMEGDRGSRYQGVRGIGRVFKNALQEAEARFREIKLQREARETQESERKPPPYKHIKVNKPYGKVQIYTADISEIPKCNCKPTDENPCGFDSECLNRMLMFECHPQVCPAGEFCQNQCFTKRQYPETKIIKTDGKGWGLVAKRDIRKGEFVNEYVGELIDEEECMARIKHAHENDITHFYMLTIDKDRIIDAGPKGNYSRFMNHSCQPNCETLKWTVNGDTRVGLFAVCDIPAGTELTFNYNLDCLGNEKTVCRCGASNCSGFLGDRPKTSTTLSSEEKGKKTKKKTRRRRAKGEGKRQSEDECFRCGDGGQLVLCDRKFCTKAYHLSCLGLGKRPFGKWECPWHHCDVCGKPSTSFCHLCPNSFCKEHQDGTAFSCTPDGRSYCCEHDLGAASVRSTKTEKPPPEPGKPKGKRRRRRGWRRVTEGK

[13] = cytotoxicity in HEK-293T cells, dose response, cytotoxicity control for BCR NF-kB inhibitor project, luminescence, B-cell screen hits (AID 489021); assay type: functional, cell-based;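 further: HEK-293T cells carrying an NF-kB luciferase reporter; cells exposed to compound for about 14 hours before viability readout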

Chain of NACHT, LRR and PYD domains-containing protein 3 (Q96P20 whole entry, the tested form may be a part): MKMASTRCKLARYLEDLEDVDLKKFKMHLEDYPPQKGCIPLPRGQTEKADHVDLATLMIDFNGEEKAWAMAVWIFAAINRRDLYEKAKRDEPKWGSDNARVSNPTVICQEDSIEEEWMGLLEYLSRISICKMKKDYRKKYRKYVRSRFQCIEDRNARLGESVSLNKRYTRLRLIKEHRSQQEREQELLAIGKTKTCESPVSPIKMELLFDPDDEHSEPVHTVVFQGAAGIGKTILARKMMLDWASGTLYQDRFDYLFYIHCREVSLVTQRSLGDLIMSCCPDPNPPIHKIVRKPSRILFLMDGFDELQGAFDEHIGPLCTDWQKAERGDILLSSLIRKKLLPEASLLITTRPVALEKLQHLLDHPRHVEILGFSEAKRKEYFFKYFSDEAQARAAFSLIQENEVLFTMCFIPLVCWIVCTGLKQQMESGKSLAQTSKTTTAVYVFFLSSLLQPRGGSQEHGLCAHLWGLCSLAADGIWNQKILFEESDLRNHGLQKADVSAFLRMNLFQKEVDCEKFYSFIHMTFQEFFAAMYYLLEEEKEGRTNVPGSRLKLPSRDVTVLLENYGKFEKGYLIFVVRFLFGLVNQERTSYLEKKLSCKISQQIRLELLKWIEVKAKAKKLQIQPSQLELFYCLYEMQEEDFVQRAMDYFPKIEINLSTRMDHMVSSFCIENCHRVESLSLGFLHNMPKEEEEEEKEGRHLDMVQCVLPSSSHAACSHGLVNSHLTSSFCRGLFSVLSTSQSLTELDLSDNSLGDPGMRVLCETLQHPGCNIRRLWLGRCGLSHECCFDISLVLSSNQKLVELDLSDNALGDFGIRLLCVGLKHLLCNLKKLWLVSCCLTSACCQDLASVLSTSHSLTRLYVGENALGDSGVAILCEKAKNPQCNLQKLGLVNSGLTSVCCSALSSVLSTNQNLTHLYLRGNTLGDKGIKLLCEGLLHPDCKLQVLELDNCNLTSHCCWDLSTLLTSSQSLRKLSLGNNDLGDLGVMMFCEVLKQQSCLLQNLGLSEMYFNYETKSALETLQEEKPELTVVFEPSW

Compound: CCCCCNC(=O)C(=O)C1C(=O)Nc2ccccc21 (stereo not drawn)
IC50 [1]: 2.9 µM (active)

IC50 [2]: > 32 µM (inactive) | IC50 [3]: > 20 µM (inactive) | IC50 [4]: > 32 µM (inactive) | IC50 [5]: > 32 µM (inactive)
Compound: Cc1ccc(S(=O)(=O)NCc2ccc(C(=O)NC3CCN(Cc4ccccc4)C3)cc2)cc1 (stereo not drawn)

EC50 [6]: > 49.7 µM (inactive) | EC50 [7]: > 16.6 µM (active)
Compound: Cc1cc(O)nc(-n2nc(C)cc2NC(=O)c2cc3ccccc3o2)n1

Compound: COc1ccc(C(=O)O/N=C(\C)c2ccccc2)cc1
EC50 [8]: 3.61 µM (active) | EC50 [9]: 0.637 µM (active) | AC50 [10]: 90.4 µM (active) | AC50 [11]: 26.1 µM (active)

Compound: CCN(CC)CCC/N=C/c1c(-c2ccccc2)nn(-c2nc3ccccc3s2)c1O
AC50 [12]: > 20 µM (inactive) | IC50 [13]: > 80 µM (inactive)
